# Source: patent US12503476B2, “Ring-fused 2-pyridone compounds, methods for preparation thereof and their use in the treatment and/or prevention of a disease involving gram-positive bacteria” (QURETECH BIO AB, priority 2020, dated 2025)
# Where two headings read alike, the source gives them in different places.
# Key:
# MRSA [1] = assay: Minimum Bactericidal Concentration (MBC) assay, MRSA; conditions: for MBC for MRSA: Table 3; for MBC: Staphylococcus aureus, MRSA
# E. faecalis [2] = assay: Minimum Inhibitory Concentration (MIC) assay, E. faecalis; assay type: cell-based, Enterococcus faecalis; conditions: for MIC: read-out: MIC for E. faecalis; for Growth inhibition of the pathogen of interest compared to the compound of Example 14 in WO 2018/229141: conclusion from Table 3 (E. faecalis and MRSA)
# Experimental: (§1) The cultures (200 μl) were incubated at 37° C. for 24 h. […] The MIC was measured in micromolar concentration, i.e. μM. Objectively, this was determined by measuring the optical density (i.e. OD) of the test cultures at 600 nm using a spectrophotometer. As used herein, OD600 stands for optical density at a wavelength of 600 nm (i.e. 600 nanometers).
# MRSA [3] = assay: Minimum Inhibitory Concentration (MIC) assay, MRSA; assay type: cell-based, Methicillin-resistant Staphylococcus aureus; conditions: 24 h, read-out: MIC for MRSA
# Experimental: as §1
# E. faecalis [4] = assay: Minimum Bactericidal Concentration (MBC) assay, E. faecalis; conditions: for MBC for E. faecalis: second figure of MIC/MBC; for MBC: Enterococcus faecalis, read-out: MBC for E. faecalis
# E. faecalis OG1RF = assay: Combined activity with gentamicin, vancomycin or ampicillin, E. faecalis OG1RF; assay type: cell-based, Enterococcus faecalis; conditions: for Synergistic effect when combined with gentamicin / OD600 at 24 h when combined with gentamicin / E. faecalis activity, combination with gentamicin compared to gentamicin alone, compound alone and comparative example alone / E. faecalis activity, combination with gentamicin compared to the combination of the comparative example and gentamicin: gentamicin 16 μg/ml; for Synergistic effect when combined with gentamicin: 24 h; for E. faecalis activity, combination with gentamicin compared to gentamicin alone, compound alone and comparative example alone / E. faecalis activity, combination with gentamicin compared to the combination of the comparative example and gentamicin / E. faecalis activity, combination with vancomycin compared to vancomycin alone or compound alone: subinhibitory compound 1-4 μM, OD600 24 h; for E. faecalis activity, combination with vancomycin compared to vancomycin alone or compound alone: vancomycin 1 μg/ml
# Experimental: (§2) […]. The concentrations used in the experiments with E. faecalis OG1RF were 16 μg/ml gentamicin, 1 μg/ml vancomycin or 1 μg/ml ampicillin. In experiments where combinations were tested against MRSA 1369, 0.05 μg/ml gentamicin, 1 μg/ml vancomycin or 16 μg/ml ampicillin was used.
# (§3) Bacterial cultures (190 μl) at a starting OD=0.001 at OD600 were incubated together with either subinhibitory concentrations of gentamicin/vancomycin/ampicillin or compound alone, or a combination of the two. The cultures (200 μl) were incubated at 37° C. for 24 h. A control sample without compound and gentamicin/vancomycin/ampicillin but containing compound vehicle (DMSO) and gentamicin/vancomycin/ampicillin vehicle (MQ water) was performed the same way. After 24 h, the effect on bacterial growth compared to untreated control samples was determined by measuring optical density at 600 nm with a spectrophotometer.
# […]. MIC/MBC values for the compounds administered alone are also shown for comparison. Unless otherwise stated, the compound was provided in a concentration of 1 μM.
# MRSA 1369 = assay: Combined activity with gentamicin, vancomycin or ampicillin, MRSA 1369; assay type: cell-based, Methicillin-resistant Staphylococcus aureus; conditions: subinhibitory compound 1-4 μM, OD600 24 h; for MRSA activity, combination with vancomycin compared to vancomycin alone or compound alone: vancomycin 1 μg/ml
# Experimental: as §2, §3
# [5] = compound alone, no antibiotic, MIC cultures plated on BHI, second figure of MIC/MBC, n.d. = activity not observed at the concentrations tested
# [6] = Enterococcus faecalis, Table 4, compound administered alone, first figure of MIC/MBC, n.d. = activity not observed
# [7] = Table 3, compound alone, no antibiotic, 24 h, 37° C., OD600, first figure of MIC/MBC, n.d. = activity not observed at the concentrations tested
# [8] = Table 3, compound alone, no antibiotic, 37° C., OD600, first figure of MIC/MBC, n.d. = activity not observed at the concentrations tested
# [9] = Table 3, compound alone, no antibiotic, MIC cultures plated on BHI, n.d. = activity not observed at the concentrations tested
# [10] = read-out: MBC for MRSA, Table 3, compound alone, no antibiotic, MIC cultures plated on BHI, second figure of MIC/MBC, n.d. = activity not observed at the concentrations tested
# [11] = Enterococcus faecalis, 24 h, Table 3, compound alone, no antibiotic, 24 h, 37° C., OD600, first figure of MIC/MBC, n.d. = activity not observed at the concentrations tested
# [12] = Staphylococcus aureus, MRSA, Table 3, compound alone, no antibiotic, 37° C., OD600, first figure of MIC/MBC, n.d. = activity not observed at the concentrations tested
# [13] = Table 4, compound administered alone, n.d. = activity not observed
# [14] = compound 1 μM, n.d. = activity not observed
Structure (SMILES),MIC (E. faecalis [2]; [6]),MBC (MRSA [1]; [10]),MIC (E. faecalis [2]; [11]),MIC (MRSA [3]; [12]),MBC (E. faecalis [4]),OD600 at 24 h when combined with gentamicin (E. faecalis OG1RF; compound 1 μM),Synergistic effect when combined with gentamicin (E. faecalis OG1RF; [14]),Growth inhibition of the pathogen of interest compared to the compound of Example 14 in WO 2018/229141 (E. faecalis [2]; compound alone),"E. faecalis activity, combination with gentamicin compared to gentamicin alone, compound alone and comparative example alone (E. faecalis OG1RF)","E. faecalis activity, combination with gentamicin compared to the combination of the comparative example and gentamicin (E. faecalis OG1RF)",further results
"O=C(O)C12C[C@@H](c3cccc(C(F)(F)F)c3)C1Sc1c(C3CC3)c(Cc3cccc4ccccc34)cc(=O)n12 (single isomer, unassigned) [Example 1]",10 µM,–,–,–,–,–,–,–,–,–,MBC for MRSA (MRSA [1]; [5]): 10 µM; MIC (E. faecalis [2]; [7]): 10 µM; MIC (MRSA [3]; [8]): 5 µM; MBC for E. faecalis (E. faecalis [4]; [9]): 25 µM; Synergistic effect when combined with gentamicin (E. faecalis OG1RF; compound 2 μM): Yes
"O=C(O)C12C[C@@H](c3cccc(C(F)(F)F)c3)C1Sc1c(C3CC3)c(Cc3cccc4ccccc34)cc(=O)n12 (single isomer, unassigned) [Example 3]",–,5 µM,10 µM,5 µM,25 µM,OD600 = 0.35 at 24 h,Yes,–,–,–,"MIC (E. faecalis [2]; Table 4, compound administered alone, first figure of MIC/MBC, n.d. = activity not observed): 10 µM; MBC for E. faecalis (E. faecalis [4]; [13]): 25 µM"
CN(C)c1c(Cc2cccc3ccccc23)c(C2CC2)c2n(c1=O)C1(C(=O)O)C[C@@H](c3cccc(C(F)(F)F)c3)C1S2 (stereo partly drawn) [Example 5],5 µM,4 µM,5 µM,3 µM,25 µM,OD600 = 0,Yes,substantially similar extent or to a higher extent,much larger extent,much larger extent,–
O=C(O)C12C[C@@H](c3cccc(Cl)c3)C1Sc1c(C3CC3)c(Cc3cccc4ccccc34)cc(=O)n12 (stereo partly drawn) [Example 9],5 µM,–,–,5 µM,25 µM,OD600 = 0.1,Yes,substantially similar extent or to a higher extent,–,–,MBC for MRSA (MRSA [1]; [5]): 1 µM; MIC (E. faecalis [2]; [7]): 5 µM; MBC for E. faecalis (E. faecalis [4]; [13]): 25 µM
O=C(O)C12C[C@@H](c3cccc(Cl)c3)C1Sc1c(C3CC3)c(Cc3cccc4ccccc34)cc(=O)n12 (stereo partly drawn) [Example 11],–,–,–,–,–,–,–,substantially similar extent or to a higher extent,much larger extent,–,MBC for MRSA (MRSA [1]; [5]): 10 µM; MIC (E. faecalis [2]; [7]): 4 µM; MIC (MRSA [3]; [8]): 4 µM; MBC for E. faecalis (E. faecalis [4]; [9]): 25 µM
CN(C)c1c(Cc2cccc3ccccc23)c(C2CC2)c2n(c1=O)C1(C(=O)O)C[C@@H](c3cccc(Cl)c3)C1S2 (stereo partly drawn) [Example 13],3 µM,4 µM,3 µM,2 µM,25 µM,OD600 = 0,Yes,substantially similar extent or to a higher extent,much larger extent,much larger extent,–
O=C(O)C12C[C@@H](c3cccc(Br)c3)C1Sc1c(C3CC3)c(Cc3cccc4ccccc34)cc(=O)n12 (stereo partly drawn) [Example 17],4 µM,7.5 µM,4 µM,3 µM,25 µM,OD 600 = 0,Yes,substantially similar extent or to a higher extent,much larger extent,much larger extent,–
Cc1cccc([C@@H]2CC3(C(=O)O)C2Sc2c(C4CC4)c(Cc4cccc5ccccc45)cc(=O)n23)c1 (stereo partly drawn) [Example 19A],–,–,–,–,25 µM,–,Yes,substantially similar extent or to a higher extent,–,–,"MBC (MRSA [1]; read-out: MBC for MRSA): 10 µM; MIC (E. faecalis [2]; Enterococcus faecalis, 24 h): 7.5 µM; MIC (E. faecalis [2]; Enterococcus faecalis): 7.5 µM; MIC (MRSA [3]; Staphylococcus aureus, MRSA): 5 µM"
Cc1cc(C)cc([C@@H]2CC3(C(=O)O)C2Sc2c(C4CC4)c(Cc4cccc5ccccc45)cc(=O)n23)c1 (stereo partly drawn) [Example 21],5 µM,7.5 µM,5 µM,3 µM,25 µM,OD600 = 0.1,Yes,substantially similar extent or to a higher extent,much larger extent,–,–
O=C(O)C12C[C@@H](c3cccc(Cl)c3)C1Sc1c(C3CC3)c(Cc3cc4ccccc4s3)cc(=O)n12 (stereo partly drawn) [Example 30],–,–,5 µM,5 µM,–,–,–,–,much larger extent,much larger extent,"MRSA activity, combination with gentamicin compared to gentamicin alone or compound alone (MRSA 1369; gentamicin 0.05 μg/ml): much larger extent; MRSA activity, combination with vancomycin compared to vancomycin alone or compound alone (MRSA 1369): much larger extent; E. faecalis activity, combination with vancomycin compared to vancomycin alone or compound alone (E. faecalis OG1RF): much larger extent"
O=C(O)C12C[C@@H](c3c(Cl)cccc3Cl)C1Sc1c(C3CC3)c(Cc3cccc4ccccc34)cc(=O)n12 (stereo partly drawn) [Example 33],–,–,5 µM,5 µM,–,–,–,substantially similar extent or to a higher extent,much larger extent,much larger extent,"MRSA activity, combination with ampicillin compared to ampicillin alone or compound alone (MRSA 1369; ampicillin 16 μg/ml): much larger extent; MRSA activity, combination with vancomycin compared to vancomycin alone or compound alone (MRSA 1369): much larger extent; E. faecalis activity, combination with vancomycin compared to vancomycin alone or compound alone (E. faecalis OG1RF): much larger extent"
